Experimental data: the NIST ThermoML archive (doi:10.1016/j.fluid.2017.12.010)
Numbers after ± are expanded uncertainties.

Assay: xn = mol fraction of the nth substance listed
Settings: Liquid, Vibrating tube method

CCCCCCCCCCCC [dodecane] + CCCCCCCCCC
Settings | mass density [kg/m3]
283.29 K, 100 kPa, x2 = 0 | 756 ± 3
283.29 K, 1000 kPa, x2 = 0 | 757 ± 3
283.29 K, 3000 kPa, x2 = 0 | 758 ± 3
283.3 K, 5000 kPa, x2 = 0 | 760 ± 3
283.3 K, 10000 kPa, x2 = 0 | 763 ± 3
283.3 K, 30000 kPa, x2 = 0 | 775 ± 3
283.3 K, 40000 kPa, x2 = 0 | 780 ± 3
283.3 K, 50000 kPa, x2 = 0 | 785 ± 3
283.3 K, 60000 kPa, x2 = 0 | 790 ± 3
283.31 K, 20000 kPa, x2 = 0 | 769 ± 3
283.31 K, 70000 kPa, x2 = 0 | 795 ± 3
283.32 K, 80000 kPa, x2 = 0 | 799 ± 3
283.32 K, 90000 kPa, x2 = 0 | 803 ± 3
283.46 K, 100 kPa, x2 = 0.4436 | 748 ± 3
283.47 K, 1000 kPa, x2 = 0.4436 | 749 ± 3
283.47 K, 5000 kPa, x2 = 0.4436 | 752 ± 3
283.48 K, 10000 kPa, x2 = 0.4436 | 755 ± 3
283.48 K, 20000 kPa, x2 = 0.4436 | 762 ± 3
283.48 K, 40000 kPa, x2 = 0.4436 | 773 ± 3
283.49 K, 30000 kPa, x2 = 0.4436 | 767 ± 3
283.49 K, 60000 kPa, x2 = 0.4436 | 783 ± 3
283.49 K, 80000 kPa, x2 = 0.4436 | 792 ± 3
283.49 K, 100000 kPa, x2 = 0.4436 | 801 ± 3
283.52 K, 100 kPa, x2 = 0.2297 | 752 ± 3
283.52 K, 1000 kPa, x2 = 0.2297 | 753 ± 3
283.52 K, 5000 kPa, x2 = 0.2297 | 755 ± 3
283.52 K, 10000 kPa, x2 = 0.2297 | 759 ± 3
283.52 K, 20000 kPa, x2 = 0.2297 | 765 ± 3
283.52 K, 30000 kPa, x2 = 0.2297 | 771 ± 3
283.52 K, 40000 kPa, x2 = 0.2297 | 776 ± 3
283.53 K, 60000 kPa, x2 = 0.2297 | 786 ± 3
283.53 K, 80000 kPa, x2 = 0.2297 | 796 ± 3
283.54 K, 100000 kPa, x2 = 0.2297 | 804 ± 3
283.57 K, 1000 kPa, x2 = 0.7841 | 743 ± 3
283.58 K, 100 kPa, x2 = 0.7841 | 742 ± 3
283.59 K, 5000 kPa, x2 = 0.7841 | 745 ± 3
283.6 K, 10000 kPa, x2 = 0.7841 | 749 ± 3
283.61 K, 100 kPa, x2 = 0.6433 | 745 ± 3
283.61 K, 1000 kPa, x2 = 0.6433 | 745 ± 3
283.61 K, 20000 kPa, x2 = 0.7841 | 755 ± 3
283.61 K, 30000 kPa, x2 = 0.7841 | 761 ± 3
283.61 K, 40000 kPa, x2 = 0.7841 | 767 ± 3
283.61 K, 60000 kPa, x2 = 0.7841 | 777 ± 3
283.61 K, 80000 kPa, x2 = 0.7841 | 787 ± 3
283.61 K, 100000 kPa, x2 = 0.7841 | 795 ± 3
283.62 K, 5000 kPa, x2 = 0.6433 | 748 ± 3
283.62 K, 10000 kPa, x2 = 0.6433 | 752 ± 3
283.62 K, 20000 kPa, x2 = 0.6433 | 758 ± 3
283.62 K, 30000 kPa, x2 = 0.6433 | 764 ± 3
283.62 K, 40000 kPa, x2 = 0.6433 | 770 ± 3
283.62 K, 60000 kPa, x2 = 0.6433 | 780 ± 3
283.62 K, 80000 kPa, x2 = 0.6433 | 789 ± 3
283.62 K, 100000 kPa, x2 = 0.6433 | 798 ± 3
293.17 K, 100 kPa, x2 = 0 | 749 ± 3
293.18 K, 1000 kPa, x2 = 0 | 750 ± 3
293.19 K, 5000 kPa, x2 = 0 | 753 ± 3
293.19 K, 10000 kPa, x2 = 0 | 756 ± 3
293.19 K, 20000 kPa, x2 = 0 | 763 ± 3
293.19 K, 30000 kPa, x2 = 0 | 769 ± 3
293.19 K, 40000 kPa, x2 = 0 | 774 ± 3
293.19 K, 50000 kPa, x2 = 0 | 780 ± 3
293.19 K, 70000 kPa, x2 = 0 | 789 ± 3
293.19 K, 80000 kPa, x2 = 0 | 794 ± 3
293.19 K, 90000 kPa, x2 = 0 | 798 ± 3
293.19 K, 100000 kPa, x2 = 0 | 802 ± 3
293.2 K, 60000 kPa, x2 = 0 | 785 ± 3
293.43 K, 10000 kPa, x2 = 0.4436 | 749 ± 3
293.43 K, 20000 kPa, x2 = 0.4436 | 755 ± 3
293.43 K, 30000 kPa, x2 = 0.2297 | 765 ± 3
293.43 K, 30000 kPa, x2 = 0.4436 | 761 ± 3
293.43 K, 40000 kPa, x2 = 0.2297 | 771 ± 3
293.43 K, 40000 kPa, x2 = 0.4436 | 767 ± 3
293.43 K, 60000 kPa, x2 = 0.2297 | 781 ± 3
293.43 K, 60000 kPa, x2 = 0.4436 | 778 ± 3
293.43 K, 80000 kPa, x2 = 0.4436 | 787 ± 3
293.43 K, 100000 kPa, x2 = 0.4436 | 796 ± 3
293.44 K, 100 kPa, x2 = 0.4436 | 741 ± 3
293.44 K, 1000 kPa, x2 = 0.4436 | 742 ± 3
293.44 K, 5000 kPa, x2 = 0.4436 | 745 ± 3
293.44 K, 20000 kPa, x2 = 0.2297 | 759 ± 3
293.44 K, 80000 kPa, x2 = 0.2297 | 790 ± 3
293.44 K, 100000 kPa, x2 = 0.2297 | 799 ± 3
293.45 K, 100 kPa, x2 = 0.2297 | 745 ± 3
293.45 K, 1000 kPa, x2 = 0.2297 | 746 ± 3
293.45 K, 5000 kPa, x2 = 0.2297 | 749 ± 3
293.45 K, 10000 kPa, x2 = 0.2297 | 752 ± 3
293.51 K, 100000 kPa, x2 = 0.6433 | 793 ± 3
293.52 K, 100 kPa, x2 = 0.6433 | 738 ± 3
293.52 K, 1000 kPa, x2 = 0.6433 | 738 ± 3
293.52 K, 5000 kPa, x2 = 0.6433 | 741 ± 3
293.52 K, 10000 kPa, x2 = 0.6433 | 745 ± 3
293.52 K, 20000 kPa, x2 = 0.6433 | 752 ± 3
293.52 K, 30000 kPa, x2 = 0.6433 | 758 ± 3
293.52 K, 40000 kPa, x2 = 0.6433 | 764 ± 3
293.52 K, 60000 kPa, x2 = 0.6433 | 774 ± 3
293.52 K, 80000 kPa, x2 = 0.6433 | 784 ± 3
293.53 K, 60000 kPa, x2 = 0.7841 | 772 ± 3
293.53 K, 80000 kPa, x2 = 0.7841 | 781 ± 3
293.53 K, 100000 kPa, x2 = 0.7841 | 790 ± 3
293.54 K, 100 kPa, x2 = 0.7841 | 735 ± 3
293.54 K, 1000 kPa, x2 = 0.7841 | 735 ± 3
293.54 K, 5000 kPa, x2 = 0.7841 | 738 ± 3
293.54 K, 10000 kPa, x2 = 0.7841 | 742 ± 3
293.54 K, 20000 kPa, x2 = 0.7841 | 749 ± 3
293.54 K, 30000 kPa, x2 = 0.7841 | 755 ± 3
293.54 K, 40000 kPa, x2 = 0.7841 | 761 ± 3
303.04 K, 30000 kPa, x2 = 0 | 762 ± 3
303.04 K, 100000 kPa, x2 = 0 | 797 ± 3
303.05 K, 100 kPa, x2 = 0 | 742 ± 3
303.05 K, 1000 kPa, x2 = 0 | 743 ± 3
303.05 K, 5000 kPa, x2 = 0 | 746 ± 3
303.05 K, 20000 kPa, x2 = 0 | 756 ± 3
303.05 K, 50000 kPa, x2 = 0 | 774 ± 3
303.05 K, 60000 kPa, x2 = 0 | 779 ± 3
303.05 K, 70000 kPa, x2 = 0 | 784 ± 3
303.05 K, 80000 kPa, x2 = 0 | 789 ± 3
303.05 K, 90000 kPa, x2 = 0 | 793 ± 3
303.06 K, 10000 kPa, x2 = 0 | 749 ± 3
303.06 K, 40000 kPa, x2 = 0 | 768 ± 3
